# Measured values from patent US8389557B2, “Triazole derivatives useful as Axl inhibitors” (Rigel Pharmaceuticals, Inc., priority 2005, dated 2013).
# Target: T1, Axl (Homo sapiens, UniProt P30530)
# T1 construct: endogenous in cells; host or cells: HeLa cells
# T1 sequence (P30530 26-894): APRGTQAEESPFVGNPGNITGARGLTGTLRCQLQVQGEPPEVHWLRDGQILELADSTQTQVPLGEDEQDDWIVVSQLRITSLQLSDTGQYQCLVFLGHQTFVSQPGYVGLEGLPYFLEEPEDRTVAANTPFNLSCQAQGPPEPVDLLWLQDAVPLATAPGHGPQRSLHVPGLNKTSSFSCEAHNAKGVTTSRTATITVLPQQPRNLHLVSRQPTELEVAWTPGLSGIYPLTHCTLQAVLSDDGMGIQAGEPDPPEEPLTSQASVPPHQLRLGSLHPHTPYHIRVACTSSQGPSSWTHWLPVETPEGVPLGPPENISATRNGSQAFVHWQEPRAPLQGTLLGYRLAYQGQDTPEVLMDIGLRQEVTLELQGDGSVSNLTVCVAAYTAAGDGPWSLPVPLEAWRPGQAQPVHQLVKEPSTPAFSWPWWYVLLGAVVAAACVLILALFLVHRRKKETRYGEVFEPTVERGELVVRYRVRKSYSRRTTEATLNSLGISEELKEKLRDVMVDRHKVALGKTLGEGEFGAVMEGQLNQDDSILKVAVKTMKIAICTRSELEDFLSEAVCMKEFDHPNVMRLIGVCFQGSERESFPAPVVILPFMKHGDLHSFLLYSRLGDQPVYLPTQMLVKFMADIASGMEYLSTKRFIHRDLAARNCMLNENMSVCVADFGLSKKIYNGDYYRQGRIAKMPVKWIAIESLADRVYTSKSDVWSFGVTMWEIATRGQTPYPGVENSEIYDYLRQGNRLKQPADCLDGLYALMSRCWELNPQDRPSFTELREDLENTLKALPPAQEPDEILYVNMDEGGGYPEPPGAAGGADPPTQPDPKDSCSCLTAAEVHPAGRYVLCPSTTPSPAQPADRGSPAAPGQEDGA
# Experiment: Phospho-Akt in-cell Western assay (inhibition of Axl activity)
# Type: cell-based
# Details: Table 2; Hela cells, Axl antibody cross-linking stimulation, phospho-Akt chemiluminescence
# Experimental: The compounds of the invention were tested in the following assay for their ability to inhibit Axl activity.
# Phospho-Akt in-Cell Western Assay
# • Cell culture plate: 96 well assay plate (Corning 3610), white, clear bottom, tissue-culture treated. • Cells: Hela cells. • Starvation medium: For Axl stimulation: 0.5% FCS (fetal calf serum) in DMEM, plus Axl/Fc (extracellular domain of AXL fused to immunoglobulin Fc region) (R&D, 154-AL) 500 ng/mL. • For EGF (epidermal growth factor) stimulation: 0.5% FCS in DMEM (Dulbecco's modified Eagles medium). • Poly-L-Lysine 0.01% solution (the working solution): 10 μg/ml, dilute In PBS (phosphate buffered saline). • Axl antibody cross-linking: • 1st: Mouse anti-Axl (R&D, MAB154). • 2nd: Biotin-SP-conjugated AffiniPure goat anti-mouse IgG (H+L) (Jackson ImmunoResearch #115-065-003). • Fixing buffer: 4% formaldehyde in PBS. • Wash buffer: 0.1% TritonX-100 in PBS. • Quenching buffer: 3% H2O2, 0.1% Azide in wash buffer, Azide and hydrogen peroxide (H2O2) are added fresh. • Blocking buffer: 5% BSA in TBST (tris buffered saline plus 0.1% Tween 20). • Primary antibody: Rabbit anti-human Phospho-Akt antibody (Cell Signaling 9271): 1×250 diluted in blocking buffer. • Secondary antibody: HRP (horse radish peroxidase)-conjugated Goat anti-Rabbit secondary, stock solution: Jackson ImmunoResearch (Goat anti-Rabbit HRP, #111-035-144) 1:1 diluted in glycerol, store at −20° C. The working solution: 1×2000 dilution of stock in blocking buffer. • Chemiluminescent working solution (Pierce, 37030): SuperSignal ELISA (enzyme linked immunosorbant assay) Pico Chemiluminescent substrate. • Crystal Violet solution: Stock: 2.5% Crystal violet in methanol, filtered and kept at ambient temperature. The working solution: dilute the stock 1:20 with PBS immediately before use. • 10% SDS: working solution: 5% SDS (sodium dodecylsulfate), diluted in PBS Methods: Day 1:
# A 96 well TC (tissue culture treated) plate was coated with 10 μg/mL poly-L-Lysine at 37° C. for 30 min, washed twice with PBS, and air-dried for 5 minutes before cells were added. Hela cells were seeded at 10,000 cells/well and the cells were starved in 100 μL starvation medium containing Axl/Fc for 24 hrs.
# The cells were pre-treated with test compounds by adding 100 μL of 2× test compound to the starvation medium on the cells. The cells were incubated at 37° C. for 1 hr before stimulation.
# The cells were stimulated by Axl-antibody cross-linking as follows: A 5×1st/2nd Axl antibody mixture was made (37.5 μg/mL 1st/100 μg/mL 2nd) in starvation medium and nutated at 4° C. with thorough mixing for 1-2 hours for clustering. The resulting mix was warmed to 37° C. 50 μL of 5× Axl 1st/2nd of antibody cluster was added to the cells and the cells were incubated at 37° C. for 5 min.
# After 5 minutes stimulation, the plate was flicked to remove medium and the plate was tapped onto paper towels. Formaldehyde (4.0% in PBS, 100 μL) was added to fix the cells and the cells were incubated at ambient temperature for 20 min without shaking.
# The cells were washed with a plate washer buffer to remove the formaldehyde solution. The plate was flicked to removed excess wash buffer and tapped onto paper towels. Quenching buffer (100 μL) was added to each well and the cells were incubated at ambient temperature for 20 minutes without shaking.
# The cells were washed with a plate washer buffer to remove the quenching buffer. Blocking buffer (100 μL) was added and the cells were incubated at ambient temperature for at least an hour with gentle shaking.
# The cells were washed with a plate washer buffer and diluted primary antibody (50 μL) was added to each well (blocking buffer was added to the negative control wells instead). The plates were incubated overnight at 4° C. with gentle shaking.
# The wash buffer was removed, diluted secondary antibody (100 μL) was added, and the cells were incubated at ambient temperature for 1 hour with gentle shaking. […]
row,IC50 [µM],Compound
1,> 20,"CC(C)Oc1ccc(C(=O)n2nc(N)nc2Nc2ccc(OCCN3CCCCC3)cc2)cc1 [compound 47, 3-amino-1-(4-(iso-propoxy)phenyl)carbonyl-5-[4-[2-(piperidin-1-yl)ethoxy]phenylamino]-1H-1,2,4-triazole]"
2,> 20,"CC(C)Oc1ccc(C(=O)n2nc(N)nc2Nc2ccc(N3CCOCC3)cc2)cc1 [compound 49, 3-amino-1-(4-(iso-propoxy)phenyl)carbonyl-5-(4-(morpholin-4-yl)phenylamino]-1H-1,2,4-triazole]"
3,> 20,"Cc1ccc(C(=O)n2nc(N)nc2Nc2ccc(OC(C)C)cc2)cc1 [compound 56, 3-amino-5-[4-(iso-propoxy)phenylamino]-1-(4-(methyl)phenyl)carbonyl-1H-1,2,4-triazole]"

row,Compound,IC50 [µM]
1,"CC(C)(C)Oc1ccc(C(=O)n2nc(N)nc2Nc2ccc(N3CCOCC3)cc2)cc1 [compound 58, 3-amino-5-(4-(morpholin-4-yl)phenylamino)-1-(4-(tert-butoxy)phenyl)carbonyl-1H-1,2,4-triazole]",> 20

# Same assay, conditions: Table 3; Hela cells, Axl antibody cross-linking stimulation, phospho-Akt chemiluminescence
row,IC50 [µM],Compound
1,1 to 10,"CC(C)Oc1ccc(Nc2nc(N)n(C(=O)c3ccc4c(c3)NC(=O)C(C)(C)O4)n2)cc1 [compound 65, 5-amino-1-(2,2-dimethyl-2H-benzo[b][1,4]oxazin-3(4H)-on-6-yl)carbonyl-3-(4-(iso-propoxy)phenyl)amino-1H-1,2,4-triazole]"

# Same assay, conditions: Table 5; Hela cells, Axl antibody cross-linking stimulation, phospho-Akt chemiluminescence
row,IC50 [µM],Compound
1,> 20,"CC(C)Oc1ccc(C(=O)n2nc(Nc3ccc4c(c3)NC(=O)C(F)(F)O4)nc2N)cc1 [compound 63, 5-amino-3-(2,2-difluoro-2H-benzo[b][1,4]oxazin-3(4H)-on-6-yl)amino-1-(4-(iso-propoxy)phenyl)carbonyl-1H-1,2,4-triazole]"
2,> 20,"Cc1cccc(C(=O)n2nc(Nc3ccc4c(c3)NC(=O)C(F)(F)O4)nc2N)c1 [compound 64, 5-amino-3-(2,2-difluoro-2H-benzo[b][1,4]oxazin-3(4H)-on-6-yl)amino-1-(3-(methyl)phenyl)carbonyl-1H-1,2,4-triazole]"

# Same assay, conditions: Table 7; Hela cells, Axl antibody cross-linking stimulation, phospho-Akt chemiluminescence
row,IC50 [µM],Compound
1,1 to 10,"CN(C)c1ccc(NC(=O)n2nc(Nc3ccc(OCCN4CCCCC4)cc3)nc2N)cc1 [compound 44, 5-amino-N-(4-(dimethylamino)phenyl)-3-[4-[2-(piperidin-1-yl)ethoxy]phenylamino]-1H-1,2,4-triazole-1-carboxamide]"
2,1 to 10,"Nc1nc(Nc2ccc(OCCN3CCCCC3)cc2)nn1C(=O)NC1CCCC1 [compound 45, 5-amino-N-cyclopentyl-3-[4-[2-(piperidin-1-yl)ethoxy]phenylamino]-1H-1,2,4-triazole-1-carboxamide]"

row,Compound,IC50 [µM]
1,"CCCCOc1ccc(NC(=O)n2nc(Nc3ccc(OCCN4CCCCC4)cc3)nc2N)cc1 [compound 46, 5-amino-N-(4-butoxyphenyl)-3-[4-[2-(piperidin-1-yl)ethoxy]phenylamino]-1H-1,2,4-triazole-1-carboxamide]",1 to 10

# Same assay, conditions: inhibition of Axl activity, Table 1
row,Compound,IC50 [µM]
1,"CC(C)Oc1ccc(C(=O)n2nc(Nc3ccc(N4CCOCC4)cc3)nc2N)cc1 [compound 48, 5-amino-1-(4-(iso-propoxy)phenyl)carbonyl-3-(4-(morpholin-4-yl)phenylamino]-1H-1,2,4-triazole]",< 1
2,"CC(C)(C)Oc1ccc(C(=O)n2nc(Nc3ccc(OCCN4CCCCC4)cc3)nc2N)cc1 [compound 50, 5-amino-3-[4-[2-(piperidin-1-yl)ethoxy]phenylamino]-1-(4-(tert-butoxy)phenyl)carbonyl-1H-1,2,4-triazole]",< 1
3,"CC(C)c1ccc(C(=O)n2nc(Nc3ccc(OCCN4CCCCC4)cc3)nc2N)cc1 [compound 51, 5-amino-1-(4-(iso-propyl)phenyl)carbonyl-3-[4-[2-(piperidin-1-yl)ethoxy]phenylamino]-1H-1,2,4-triazole]",< 1
4,"CC(C)c1ccc(C(=O)n2nc(Nc3ccc(N4CCOCC4)cc3)nc2N)cc1 [compound 52, 5-amino-1-(4-(iso-propyl)phenyl)carbonyl-3-(4-(morpholin-4-yl)phenylamino]-1H-1,2,4-triazole]",< 1
5,"Cc1ccc(C(=O)n2nc(Nc3ccc(OCCN4CCCCC4)cc3)nc2N)cc1 [compound 53, 5-amino-1-(4-(methyl)phenyl)carbonyl-3-[4-[2-(piperidin-1-yl)ethoxy]phenylamino]-1H-1,2,4-triazole]",< 1
6,"CC(C)(C)Oc1ccc(C(=O)n2nc(Nc3ccc(N4CCOCC4)cc3)nc2N)cc1 [compound 57, 5-amino-3-(4-(morpholin-4-yl)phenylamino)-1-(4-(tert-butoxy)phenyl)carbonyl-1H-1,2,4-triazole]",< 1

# Continued, values first:
row,IC50 [µM],Compound
1,< 1,"Cc1ccc(C(=O)n2nc(Nc3ccc(N4CCOCC4)cc3)nc2N)cc1 [compound 54, 5-amino-1-(4-(methyl)phenyl)carbonyl-3-(4-(morpholin-4-yl)phenylamino)-1H-1,2,4-triazole]"
2,< 1,"Cc1ccc(C(=O)n2nc(Nc3ccc(OC(C)C)cc3)nc2N)cc1 [compound 55, 5-amino-3-[4-(iso-propoxy)phenylamino]-1-(4-(methyl)phenyl)carbonyl-1H-1,2,4-triazole]"
3,< 1,"Cc1cccc(C(=O)n2nc(Nc3ccc(OCCN4CCCCC4)cc3)nc2N)c1 [compound 59, 5-amino-1-(3-(methyl)phenyl)carbonyl-3-[4-[2-(piperidin-1-yl)ethoxy]phenylamino]-1H-1,2,4-triazole]"
4,< 1,CC(C)Oc1ccc(C(=O)n2nc(Nc3ccc(OCCN4CCSCC4)cc3)nc2N)cc1 [compound 60]
5,1 to 10,Cc1cccc(C(=O)n2nc(Nc3ccc(OCCN4CCSCC4)cc3)nc2N)c1 [compound 61]
6,1 to 10,"Nc1nc(Nc2ccc(OCCN3CCCCC3)cc2)nn1C(=O)c1ccc(C2CCCCC2)cc1 [compound 62, 5-amino-1-(4-(cyclohexyl)phenyl)carbonyl-3-[4-[2-(piperidin-1-yl)ethoxy]phenylamino]-1H-1,2,4-triazole]"
